Like-named read-outs stand apart in the source and are kept apart here.
Experiments:
[1] = tested on: LNL8 fibroblasts; experiment: Immunofluorescent staining of Rad51 foci in nuclei and micronuclei of LNL8 fibroblasts; assay type: cell-based; settings: human LNL8 fibroblast cultures, non-lethal doses of 5-aza-dC
Excerpt: (§1) Immunofluorescent Staining.
(§2) Digital Imaging Microscopy.

[2] = tested on: TGR-1 cells; experiment: Immunofluorescent staining of Rad51 foci in nuclei and micronuclei of TGR-1 cells; assay type: cell-based, rat; settings: TGR-1 cultures treated with etoposide, FIG. 5D
Excerpt: as §1, §2

[3] = tested on: TGR-1 cells; experiment: Apoptosis by fluorescence in situ end labeling (FISEL) in TGR-1 cells; assay type: cell-based, rat; settings: After 36 hrs etoposide in culture medium
Method: Treatment with etoposide (Sedivy), a drug that inhibits DNA topoisomerase II, is a classic system for inducing apoptosis in cells (Mizumoto, et al., (1994). Mol. Pharmac. 46, 890-895).
(§3) Fluorescence In Situ End Labeling (FISEL). FISEL detects cell death (apoptosis) in situ by quantitating DNA strand breaks in individual nuclei. It uses terminal transferase (TdT) to label the 3′-ends in fragmented genomic DNA with biotinylated nucleotide. 100 μl of reaction mix contain 1 μl (25 Units) TdT (Boehringer Mannheim), 20 μl 5×TdT buffer (supplied with the enyzme), 1 μl 0.5 mM biotin-ll-dUTP, 3 μl 0.5 mM dTTP, and 75 μl ddH2O. Cytological preparations are incubated at 37° C. for 1 hr with this reaction mix. Washing the slides for 3×5 min in PBS is sufficient to terminate the reaction. The incorporated biotin-dUTP is detected with rhodarnine-conjugated avidin.

[4] = tested on: TGR-1 cells
Method: To induce DSBs in DNA and recombinational repair, cell cultures were exposed to a ^137CS irradiator at doses of 900 rad and then allowed to recover for various time spans. In another experiment, cells were treated with 10 μM 5-aza-dC for 24 hrs.
Immunofluorescent Staining. Harvested cells were washed and resuspended in PBS. Cell density was adjusted to ˜10^5 cells/ml. 0.5 ml aliquots of this cell suspension were centrifuged onto clean glass slides at 800 rpm for 4 min, using a Shandon Cytospin. Immediately after cytocentrifugation, the preparations were fixed in absolute methanol for 30 min at −20° C. and then rinsed in ice-cold acetone for a few seconds. Following three washes with PBS, the preparations were incubated at 37° C. with rabbit anti-HsRad51 antiserum, diluted 1:100 with PBS, in a humidified incubator for 30 min. For some experiments, the slides were simultaneously labeled with rat anti-HsRad52 antiserum or mouse monoclonal antibody. The slides were then washed in PBS another three times for 10 min each and incubated for 30 min with fluorescein-isothiocyanate (FITC)-conjugated anti-rabbit IaG, appropriately diluted with PBS. Rad52, Gadd45, p53, and RNAPII were detected with rhodamine, conjugated anti-rat IgG or anti-mouse IgG+IgM. After three further washes with PBS, the preparations were counterstained with 1 μg/ml 4,6-diamidino-2-phenylindole (DAPI) in 2×SSC for 5 min. The slides were mounted in 90% glycerol, 0.1 M Tris-HCl, pH 8.0, and 2.3% 1,4-diazobicyclo-2,2,2-octane (DABCO).
as §3
Digital Imaging Microscopy. Images were taken with a Zeiss epifluorescence microscope equipped with a thermoelectronically cooled charge coupled device (CCD) camera (Photometries CH250), which was controlled by an Apple Macintosh computer. Gray scale source images were captured separately with filter sets for FITC, rhodamine, and DAPI. Gray scale images were pseudocolored and merged using ONCOR Image and ADOBE Photoshop software.

[5] = 24 hrs 0.1 μg/ml colcemid, 1 day of recovery
[6] = 24 hrs 0.1 μg/ml colcemid, 2 days of recovery
[7] = 24 hrs 0.1 μg/ml colcemid, 3 days of recovery
[8] = 24 hrs 0.1 μg/ml colcemid, no recovery

Nc1ncn([C@H]2C[C@H](O)[C@@H](CO)O2)c(=O)n1 [5-aza-dC, 5-azadeoxycytidine]
cells displaying MN with focally concentrated Rad51 protein [1]: 5-10%

COc1cc([C@@H]2c3cc4c(cc3[C@@H](O[C@@H]3O[C@@H]5CO[C@@H](C)O[C@H]5[C@H](O)[C@H]3O)[C@H]3COC(=O)[C@H]23)OCO4)cc(OC)c1O [etoposide]
content of induced micronuclei (Rad51 protein, fragmented DNA) [2]: contain Rad51 protein
cells showing genome fragmentation (FISEL-positive) [3]: half of the cells showed genome fragmentation

CN[C@H]1CCc2cc(OC)c(OC)c(OC)c2-c2ccc(OC)c(=O)cc21 [Colcemid, colcemid]
colcemid-treated cells arrested at metaphase ([4]; 24 hrs 0.1 μg/ml colcemid): 185
Percentage of Cells Showing Rad51+/FISEL+ [4, 5]: 1%
Percentage of Cells Showing Rad51+/FISEL− [4, 5]: 31%
Percentage of Cells Showing Rad51−/FISEL+ [4, 5]: 14%
Percentage of Cells Showing Rad51−/FISEL− [4, 5]: 54%
Percentage of Cells Showing Rad51+/FISEL+ [4, 6]: 6%
Percentage of Cells Showing Rad51+/FISEL− [4, 6]: 9%
Percentage of Cells Showing Rad51−/FISEL+ [4, 6]: 40%
Percentage of Cells Showing Rad51−/FISEL− [4, 6]: 45%
Percentage of Cells Showing Rad51+/FISEL+ [4, 7]: 4%
Percentage of Cells Showing Rad51+/FISEL− [4, 7]: 7%
Percentage of Cells Showing Rad51−/FISEL+ [4, 7]: 46%
Percentage of Cells Showing Rad51−/FISEL− [4, 7]: 43%
Percentage of Cells Showing Rad51+/FISEL+ [4, 8]: 0%
Percentage of Cells Showing Rad51+/FISEL− [4, 8]: 6%
Percentage of Cells Showing Rad51−/FISEL+ [4, 8]: 9%
Percentage of Cells Showing Rad51−/FISEL− [4, 8]: 85%
induced MN containing very brightly fluorescing Rad51 foci ([4]; colcemid-treated cells recovered 24 hrs in drug-free medium): over 30%

— patent US6391564B1, “Methods and compositions utilizing Rad51” (priority 1997, dated 2002)
